Activity calls are given as the source filed them. No rule for the calls is given here.
Test system: CCRIS mutagenicity, Ames/micronucleus/aberration tests
Experiment: CCRIS mutagenicity studies
Conditions: Test System: AMES SALMONELLA TYPHIMURIUM
[1] = Strain/Indicator: TA98, Metabolic Activation: NONE, Method: PREINCUBATION
[2] = Strain/Indicator: TA100, Metabolic Activation: NONE, Method: PREINCUBATION

Measured: mutagenic call

CCC(C)(C)c1ccc(O)cc1
inactive: Strain/Indicator: TA97, Metabolic Activation: HAMSTER, LIVER, S-9, AROCLOR 1254 (10%), Method: PREINCUBATION inactive; negative | Strain/Indicator: TA97, Metabolic Activation: HAMSTER, LIVER, S-9, AROCLOR 1254 (30%), Method: PREINCUBATION inactive; negative | Strain/Indicator: TA97, Metabolic Activation: NONE, Method: PREINCUBATION inactive; negative | Strain/Indicator: TA97, Metabolic Activation: RAT, LIVER, S-9, AROCLOR 1254 (10%), Method: PREINCUBATION inactive; negative | Strain/Indicator: TA97, Metabolic Activation: RAT, LIVER, S-9, AROCLOR 1254 (30%), Method: PREINCUBATION inactive; negative | Strain/Indicator: TA98, Metabolic Activation: HAMSTER, LIVER, S-9, AROCLOR 1254 (10%), Method: PREINCUBATION inactive; negative | Strain/Indicator: TA98, Metabolic Activation: HAMSTER, LIVER, S-9, AROCLOR 1254 (30%), Method: PREINCUBATION inactive; negative | [1] inactive; negative | Strain/Indicator: TA98, Metabolic Activation: RAT, LIVER, S-9, AROCLOR 1254 (10%), Method: PREINCUBATION inactive; negative | Strain/Indicator: TA98, Metabolic Activation: RAT, LIVER, S-9, AROCLOR 1254 (30%), Method: PREINCUBATION inactive; negative | Strain/Indicator: TA100, Metabolic Activation: HAMSTER, LIVER, S-9, AROCLOR 1254 (10%), Method: PREINCUBATION inactive; negative | Strain/Indicator: TA100, Metabolic Activation: HAMSTER, LIVER, S-9, AROCLOR 1254 (30%), Method: PREINCUBATION inactive; negative | [2] inactive; negative | Strain/Indicator: TA100, Metabolic Activation: RAT, LIVER, S-9, AROCLOR 1254 (10%), Method: PREINCUBATION inactive; negative | Strain/Indicator: TA100, Metabolic Activation: RAT, LIVER, S-9, AROCLOR 1254 (30%), Method: PREINCUBATION inactive; negative | Strain/Indicator: TA1535, Metabolic Activation: HAMSTER, LIVER, S-9, AROCLOR 1254 (10%), Method: PREINCUBATION inactive; negative | Strain/Indicator: TA1535, Metabolic Activation: HAMSTER, LIVER, S-9, AROCLOR 1254 (30%), Method: PREINCUBATION inactive; negative | Strain/Indicator: TA1535, Metabolic Activation: NONE, Method: PREINCUBATION inactive; negative | Strain/Indicator: TA1535, Metabolic Activation: RAT, LIVER, S-9, AROCLOR 1254 (10%), Method: PREINCUBATION inactive; negative | Strain/Indicator: TA1535, Metabolic Activation: RAT, LIVER, S-9, AROCLOR 1254 (30%), Method: PREINCUBATION inactive; negative

O=C1c2ccccc2-c2cc3ccccc3cc21
active: Strain/Indicator: TA98, Metabolic Activation: NONE, Method: STANDARD PLATE active; positive | Strain/Indicator: TA98, Metabolic Activation: RAT, LIVER, S-9, AROCLOR 1254, Method: STANDARD PLATE active; positive

O=S(=O)(O)c1ccc2cc(O)c(S(=O)(=O)O)cc2c1
inactive: [1] inactive; negative | Strain/Indicator: TA98, Metabolic Activation: RAT, LIVER, S-9, PHENOBARBITAL, Method: PREINCUBATION inactive; negative | [2] inactive; negative | Strain/Indicator: TA100, Metabolic Activation: RAT, LIVER, S-9, PHENOBARBITAL, Method: PREINCUBATION inactive; negative

— PubChem BioAssay AID1259407 (Chemical Carcinogenesis Research Information System (CCRIS), 2018)
